We go through 86 molecules from a melting point compilation (Tetko et al.; mined from patent text by program, amines drawn as free bases though some values may be those of a salt).

Molecule `C[C@@H]1c2cccn2-c2ccc(F)cc2N1C(=O)c1ccc(O)cc1` displayed a melting point of 125 to 129 °C.

`Cc1ccc(C(=O)Nc2c(NC(=O)CN3CCN(c4ccccc4C#N)CC3)ccc3c2C(=O)c2ccccc2C3=O)cc1` gave a melting point of 238 to 239 °C. Next, `CC(C)C#CC1(C(F)(F)F)OCC(=O)Nc2ccc(F)c(F)c21` (stereo unspecified): 192 to 194 °C. Next, `CCc1cn(C)cc(-c2cccc(C(F)(F)F)c2)c1=O`: 95.5 to 96.5 °C; `CN1CCC(Nc2ncc3ncnc(Nc4ccc(Oc5ccccc5)cc4)c3n2)CC1`: 157 °C; `Cc1occ2c1-c1ccccc1C(=C1CCN(C)CC1)c1ccccc1-2`: 80 to 86 °C. Next, `COC(=O)Nc1cc(Oc2ccc3c(C(=O)Nc4ccc(CN5CCNCC5)c(C(F)(F)F)c4)cccc3c2)ncn1`: 138 to 148 °C. Molecule `CCC(C)n1ncn(-c2ccc(N3CCN(c4ccc(OCC(O)(Cn5cncn5)c5ccc(Cl)cc5Cl)cc4)CC3)nc2)c1=O` (stereo unspecified) showed a melting point of 84 to 87 °C.

`Brc1cc(Br)c(CSCc2cc(Br)c(Br)cc2Br)cc1Br` displayed a melting point of 173 to 175 °C. Next, `C#CCn1c2ccc(Br)cc2c2cc(Br)ccc21`: 193 to 194 °C; `CS(=O)(=O)c1cccc(-c2ccc3cnc(Nc4ccc(C5CCN(CC(N)=O)CC5)cc4)nn23)c1`: 254 °C; `CC(C)(C)OC(=O)N1CCc2c(C=O)c3ccccc3n2CC1`: 167 to 168 °C. Next, `CCC12CCC3c4ccc(OC)cc4CCC3C1CC(=CN(C)C)C2=O` (stereo unspecified): 157 to 159 °C; `COc1ccc(COc2cccc(C(=O)Nc3ccc(C#N)cc3)c2)cc1`: 147 to 148 °C; `O=C(NCCSC(c1ccccc1)(c1ccccc1)c1ccccc1)c1cc2cccc(OCc3ccccc3)c2[nH]1`: 156 to 157 °C.

With `Cc1ccc(N2CCN(CCC3CN(C)C(=O)O3)CC2)cc1C` (stereo unspecified), the melting point was in the range of 96 to 97 °C. Next, `COC(=O)c1nn(Cc2ccc(Cl)cc2Cl)c2ccccc12`: 168 to 170 °C.

Regarding `Cc1cc(F)ccc1-n1c(CF)nc2ccc([N+](=O)[O-])cc2c1=O`, the melting point fell in the range of 171 to 173 °C. Next, `CCC(CC)N(O)C(=O)Nc1ccc([N+](=O)[O-])cc1`: 169 to 170 °C; `Cc1[nH]c2c(Cl)cc(Nc3cnccc3N)cc2c1C`: 108 to 110 °C; `COc1cc2nc(N3CCN(C(=O)C=Cc4ccc(OC)c(OC)c4OC)CC3)nc(N)c2cc1OC`: 263 to 264 °C. Next, `CCCCS(=O)(=O)C(c1ccc(Cl)cc1)c1ccc(Cl)cc1`: 104 to 106 °C.

For the molecule `O=C(O)CCCCC=Cc1cc(-c2ccccc2)c2ccccc2n1`, the melting point was in the range of 152 to 154 °C. Next, `CCc1nc2c(C)cc(C)nc2n1Cc1ccc2oc(-c3ccccc3NS(=O)(=O)C(F)(F)F)c(Br)c2c1`: 90 to 95 °C; `CCC(=O)NCC=C1CCc2ccc3ncoc3c21`: 148 to 150 °C; `CCCCCCCCCCCCCCC(=O)NCCCN(C)C`: 46 to 48 °C. Next, `Clc1cccc(Cl)c1C1=NC2(CO1)COC(c1ccccc1)OC2` (stereo unspecified): 158 to 160 °C; `CCC1(C)CCCC(C)(C)N1OC(C)(C)C#N` (stereo unspecified): 41 to 52 °C; `Oc1ccc2cc(-c3csc(-c4ccccc4)n3)ccc2c1`: 194 to 197 °C.

`O=C(NOCC(O)CO)c1ccc(F)c(F)c1Nc1ccc(I)cc1F` (stereo unspecified) gave a melting point of 117 to 118 °C. Next, `O=C(N[C@@H]1CCC[C@H]1O)C(O)=CC(=O)c1cc(Cc2ccc(F)cc2F)cn(Cc2ccccc2F)c1=O`: 55 to 57 °C; `O=C1Nc2ccccc2NC2CCCC12` (stereo unspecified): 191 to 212 °C. In the case of `CCOC(=O)c1ccc(NC(=O)C=C(c2ccc(F)cc2)c2ccc(F)cc2)cc1`, the melting point lay in the range of 161 to 163 °C. Next, `CCOC(=O)C=C(C)Nc1cc(C)ccc1C`: 67 °C; `O=C1OC2(CCN(C(=O)Nc3cnc(-c4ccccc4)cn3)CC2)c2ccc(F)cc21`: 236 to 238 °C; `Cc1oncc1C(=O)N1CCC(C)CC1`: 44 to 45 °C. Next, `N#Cc1cnc2cc(-c3ccc(CN4CCOCC4)cc3)sc2c1Nc1ccc(Oc2ccccc2)cc1`: 254 to 256 °C; `O=C1C(=O)N(c2cccc3ccccc23)C(=O)N1c1ccc(Cl)cc1`: 158 °C.

The molecule `CC1C(=O)N(c2ccc(S(N)(=O)=O)cc2Cl)CN1c1ccccc1` (stereo unspecified) showed a melting point of 202 °C.

Consider `CCCCn1cc(C(=O)C(=O)O)c2cc(-c3cccc(Cl)c3)ccc21`, for which the melting point was in the range of 108 to 109 °C. Next, `O=C1Nc2cc(C(F)(F)F)ccc2C1(O)c1cc(Cl)ccc1O` (stereo unspecified): 198 to 200 °C. Next, `O=P1(Oc2c(Cl)cc(Cl)cc2Cl)OCC2(CO1)COP(=O)(Oc1c(Cl)cc(Cl)cc1Cl)OC2` (stereo unspecified): 283 °C; `COc1cc2c(cc1OC)N(Cc1ccccc1)C(=O)CN=C2c1cccc(C(F)(F)F)c1`: 175 to 178 °C; `O=C(Cl)Cc1ccccc1NS(=O)(=O)C(F)(F)F`: 94 to 95 °C. As to `Cc1c(-c2ccccc2)n(-c2cc([N+](=O)[O-])ccc2Cl)c(-c2ccccc2)cc1=O`, the melting point is 277 to 279 °C. Next, `Cn1c(C(N)=O)c2n(c1=O)-c1ccc(Cl)cc1C(c1ccccc1Cl)=NC2`: 158 to 160 °C; `CC(C)c1cc(Br)cc(C(C)C)c1N=C(c1ccccc1)c1ccccc1`: 114 °C; `O=C1C(Cc2ccncc2)c2ccccc2N1N1CCCCC1` (stereo unspecified): 83 to 86 °C. Next, `COC(=O)c1cc2n(c1)CCCC2`: 72 to 74 °C; `COC(=O)c1cc(I)cn1C`: 64 to 65 °C. Next, `CCc1cc2c3c(cc(C)c2[nH]c1=O)CC(C)(CN=[N+]=[N-])O3` (stereo unspecified): 211 to 212 °C; `O=C(c1ccccc1F)c1cc(Cl)ccc1C(=O)C(Br)CN1C(=O)c2ccccc2C1=O` (stereo unspecified): 125 to 128 °C. Consider `COc1ccccc1-c1coc2cc(O)ccc2c1=O`, for which the melting point fell in the range of 222 to 224 °C. Next, `CC(C)(Oc1ccc(NC(=O)Cc2ccccc2)cc1)C(=O)O`: 173 to 175 °C; `COC1=C(C(=O)NNC(=O)Cc2ccc(F)cc2)CN(C(C)C)C1=O`: 157 to 158 °C. Next, `CC(C)CCCC(C)C1CC(=O)C2=C3C(F)CC4CC(OC(=O)c5ccccc5)CCC4(C)C3CCC21C` (stereo unspecified): 144 to 145 °C. Next, `CCCCNc1ccc(C(=O)O)cc1N`: 158 °C; `O=C1N(c2c(Cl)cccc2Cl)Cc2cnc(NCC3CCCCC3)nc2N1c1ccccc1`: 229 to 233 °C; `Cc1ccc(-c2c(Cl)ncn2-c2ccc(S(C)(=O)=O)cc2)cc1Cl`: 181 to 182 °C. For the molecule `Cc1ccc(Cn2c(-c3ccc(C(O)(C(F)(F)F)C(F)(F)F)cc3)cc3ccccc3c2=O)cc1`, the melting point was in the range of 267 to 268 °C.

As to `CC(C)C(NC(=O)c1ccncc1)C(=O)NC(Cc1ccccc1)C(O)C(Cc1ccccc1)NC(=O)C(NC(=O)c1ccncc1)C(C)C` (stereo unspecified), the melting point was in the range of 256 to 258 °C.

In turn, `CNc1cc(NS(=O)(=O)c2ccc(F)cc2)nc(NC)n1` showed a melting point of 261 to 263 °C. Next, `c1c(N2CCNCC2)nc(N2CCC3(CC2)OCCO3)nc1N1CCC2(CC1)OCCO2`: 130 to 140 °C; `CC(C)OCC(=O)C1CCC2C3CCC4CC(O)CCC4(C)C3C(=O)CC12C` (stereo unspecified): 121 to 125 °C; `CN(C)C(=O)Nc1ccc(Oc2ccc3ccccc3c2)c(C(F)(F)F)c1`: 210 to 211 °C. Take `CC(=O)NC(Cc1c[nH]c2ccccc12)C(=O)OCc1cc(C)cc(C)c1` (stereo unspecified): the melting point was in the range of 145 to 146 °C. Next, `Cc1nc2cc(-n3cccc3)ccc2o1`: 115 to 121 °C; `CCCCCCC(=N)NC(=S)Nc1ccc(Br)cc1Br`: 86 to 88 °C; `O=C1NCCN1c1ccc(S(=O)(=O)Oc2ccc3[nH]ccc3c2)cc1`: 226 to 227 °C. For `CC12CCC(CN([Si](C)(C)C)S(=O)(=O)C1)C2(C)C` (single isomer, unassigned; (-)), the melting point was in the range of 63 to 73 °C. Next, `Cc1cccc(Nc2ncnc3ccc(-n4cnc5ccccc54)cc23)c1`: 245 to 246 °C; `CSc1nn(C(=O)NC2CCCCC2)c(=O)n1C`: 136 °C.

In turn, `CC(=O)Nc1ccc2c(c1)C(CN1CCC(c3ccc(F)cc3)CC1)CC2` (stereo unspecified) yielded a melting point of 145 to 146 °C. `O=C(O)c1ccc(-c2csc(-c3ccc(Cl)cc3)n2)cc1` gave a melting point of 284 to 285 °C. Next, `CCSCCn1c(=N)sc2cc(C(F)(F)F)ccc21`: 50 °C; `O=c1c2cccc(O)c2nc(-c2ccc(OCCCl)cc2)n1-c1ccc(O)cc1`: 188 to 190 °C; `COc1cc2c(=O)c(S(C)=O)nn(C)c2cc1OC` (stereo unspecified): 262 to 264 °C. `COc1ccc(CN2C(=O)CCc3cc(O)c(OC)cc32)cc1` yielded a melting point of 168 to 169 °C. Next, `NS(=O)(=O)c1ccccc1-c1ccc(Cn2c(-c3ccccc3)nc(Cl)c2C=O)cc1`: 215 °C. Next, `O=C(Nc1ccccc1C(c1ccc(O)cc1)c1ccc(O)cc1)C1CCCCC1`: 220 to 223 °C; `O=c1c2ccccc2ncn1C1CCN(CCC(CC(F)(F)F)c2ccccc2)CC1` (stereo unspecified): 128 to 129 °C. Next, `Nc1ccc(-c2cnc3c(c2)N(Cc2c(F)ccc(F)c2Cl)CCN3)cn1`: greater than 200 °C. Turning to `O=C(O)CCC(Cl)(Cl)Cl`, the melting point amounted to 54.8 °C. Next, `CC(Cl)c1nnc2n1-c1ccc(Cl)cc1C(c1ccccc1)=NC2` (stereo unspecified): 154 to 156 °C; `Cc1ccc(S(=O)(=O)OCCCCCn2c3c(c4ccccc4c2=O)C(=O)c2ccccc2-3)cc1`: 163 to 165 °C; `Nc1cccc(F)c1O`: 115 °C.

In general, melting point refers to the temperature of the solid-liquid transition.
